In PubChem BioAssay AID248 (DTP/NCI, 2004):
Where “and” joins values, the source holds several entries; their conditions need not be identical. Identical values can stand only once. Toxic doses and inconclusive results are not listed. No stated cut-off is given here; in the data, active means T/C of 150% or more; inactive means T/C below 125%.

System: L1210 leukemia ip in BDF1 mice, survival T/C
Assay: NCI In Vivo Anticancer Drug Screen. Data for tumor model L1210 Leukemia (intraperitoneal) in B6D2F1 (BDF1) mice
Settings: endpoint: mean survival time, higher = longer survival
In short: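 Value reflects the ratio of survival in compound-treated mice to survival in vehicle-treated controls, with both groups carrying the same transplanted tumor.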

[1] = dose: 50.0 mg/kg/injection, schedule: Q01DX009 (ip), vehicle: saline with Tween-80
[2] = dose: 100.0 mg/kg/injection, schedule: Q01DX009 (ip), vehicle: saline with Tween-80
[3] = dose: 100.0 mg/kg/injection, schedule: Q04DX003 (ip), vehicle: saline with Tween-80
[4] = dose: 100.0 mg/kg/injection, schedule: Q04DX003 (ip), vehicle: saline
[5] = dose: 200.0 mg/kg/injection, schedule: Q01DX009 (ip), vehicle: saline with Tween-80
[6] = dose: 200.0 mg/kg/injection, schedule: Q04DX003 (ip), vehicle: saline
[7] = dose: 100.0 mg/kg/injection, schedule: Q04DX002 (ip), vehicle: Klucel (hydroxypropylcellulose) (HPC)
[8] = dose: 200.0 mg/kg/injection, schedule: Q04DX002 (ip), vehicle: Klucel (hydroxypropylcellulose) (HPC)
[9] = dose: 400.0 mg/kg/injection, schedule: Q04DX002 (ip), vehicle: Klucel (hydroxypropylcellulose) (HPC)
[10] = dose: 50.0 mg/kg/injection, schedule: Q01DX001 (ip), vehicle: saline
[11] = dose: 100.0 mg/kg/injection, schedule: Q01DX001 (ip), vehicle: saline
[12] = dose: 200.0 mg/kg/injection, schedule: Q01DX001 (ip), vehicle: saline

Measured: T/C

CSCCC(C#N)c1ccccc1 (centres undefined)
inactive: [1] 93 % of control | [2] 104 % of control | [3] 103 % of control | [4] 103 % of control | [5] 110 % of control | dose: 200.0 mg/kg/injection, schedule: Q04DX003 (ip), vehicle: saline with Tween-80 97 % of control | [6] 97 % of control

CC1CCCC[N-]1.CC1CCCC[N-]1.N#C[S-].N#C[S-].[Cu] (centres undefined)
inactive: dose: 5.0 mg/kg/injection, schedule: Q01DX001 (ip), vehicle: saline 94 % of control | dose: 10.0 mg/kg/injection, schedule: Q01DX001 (ip), vehicle: saline 86 % of control | dose: 20.0 mg/kg/injection, schedule: Q01DX001 (ip), vehicle: saline 91 % of control | dose: 40.0 mg/kg/injection, schedule: Q01DX001 (ip), vehicle: saline 100 % of control

CC(=O)Oc1cc2c(OC(C)=O)c(-c3c(C)cc4c(C(C)C)c(OC(C)=O)c(OC(C)=O)cc4c3OC(C)=O)c(C)cc2c(C(C)C)c1OC(C)=O
inactive: [3] 86 % of control

O=C(O)C1C2CC3CC(C2)CC1C3 (centres undefined)
inactive: [7] 105 % of control | [8] 94 % of control and 110 % of control | [9] 113 % of control | dose: 600.0 mg/kg/injection, schedule: Q04DX002 (ip), vehicle: Klucel (hydroxypropylcellulose) (HPC) 94 % of control

NC(=O)c1cc(O)c(Br)c(O)c1
inactive: dose: 100.0 mg/kg/injection, schedule: Q01DX009 (ip), vehicle: other 86 % of control | [4] 98 % of control | dose: 200.0 mg/kg/injection, schedule: Q01DX009 (ip), vehicle: other 100 % of control | [6] 109 % of control | dose: 400.0 mg/kg/injection, schedule: Q01DX009 (ip), vehicle: other 93 % of control | dose: 400.0 mg/kg/injection, schedule: Q04DX003 (ip), vehicle: saline 98 % of control

O=C1OC(c2ccc([N+](=O)[O-])cc2)=N/C1=C\C=C\c1ccccc1
inactive: dose: 100.0 mg/kg/injection, schedule: Q01DX009 (ip), vehicle: Klucel (hydroxypropylcellulose) (HPC) 98 % of control | dose: 200.0 mg/kg/injection, schedule: Q01DX009 (ip), vehicle: Klucel (hydroxypropylcellulose) (HPC) 96 % of control | dose: 400.0 mg/kg/injection, schedule: Q01DX009 (ip), vehicle: Klucel (hydroxypropylcellulose) (HPC) 103 % of control

O=C(O)COc1ccc(OS(=O)(=O)c2ccccc2)cc1
inactive: [7] 103 % of control | [8] 111 % of control | [9] 103 % of control

Nc1nnc2c(n1)[nH]c1ccccc12
inactive: [10] 96 % of control | [11] 100 % of control | [12] 93 % of control

CCC(=O)c1cc([N+](=O)[O-])ccc1N
inactive: [1] 100 % of control | [2] 100 % of control | [5] 100 % of control

COC(=O)C(NC(C)=O)C(C)C (centres undefined)
inactive: dose: 6.25 mg/kg/injection, schedule: Q03HX024 (ip), vehicle: saline 97 % of control | dose: 12.5 mg/kg/injection, schedule: Q03HX024 (ip), vehicle: saline 96 % of control | dose: 25.0 mg/kg/injection, schedule: Q01DX001 (ip), vehicle: saline 100 % of control | dose: 25.0 mg/kg/injection, schedule: Q03HX024 (ip), vehicle: saline 89 % of control | [10] 96 % of control | dose: 50.0 mg/kg/injection, schedule: Q03HX024 (ip), vehicle: saline 89 % of control | [11] 101 % of control | dose: 100.0 mg/kg/injection, schedule: Q03HX024 (ip), vehicle: saline 105 % of control | [12] 99 % of control | dose: 400.0 mg/kg/injection, schedule: Q01DX001 (ip), vehicle: saline 106 % of control

CCOC(=O)C1(C(=O)OCC)CCC(OCC)N1C(=O)c1ccccc1[N+](=O)[O-] (centres undefined)
inactive: dose: 25.0 mg/kg/injection, schedule: Q04DX003 (ip), vehicle: Klucel (hydroxypropylcellulose) (HPC) 94 % of control | dose: 50.0 mg/kg/injection, schedule: Q04DX003 (ip), vehicle: Klucel (hydroxypropylcellulose) (HPC) 99 % of control | dose: 100.0 mg/kg/injection, schedule: Q04DX003 (ip), vehicle: Klucel (hydroxypropylcellulose) (HPC) 89 % of control

O=c1[nH]nnc2c1ncn2C1OC(CO)C(O)C1O (centres undefined)
inactive: dose: 100.0 mg/kg/injection, schedule: Q01DX005 (ip), vehicle: saline 102 % of control | dose: 200.0 mg/kg/injection, schedule: Q01DX005 (ip), vehicle: saline 102 % of control
